Data from US20230333087A1, “METHODS FOR MONITORING PATIENT RESPONSE TO TREATMENT OF RETINAL OXIDATIVE DISEASES” (BioJiva LLC, priority 2022, published 2023).

How the values were obtained:
Format in all cases: in vivo, C57BL/6J mice
[1] = tested on: iron-induced retinal autofluorescence and degeneration; assay: Iron-induced retinal autofluorescence and degeneration, cSLO and OCT imaging 1 week after intravitreal iron
Protocol: To evaluate the protective effect of 0.25% D-DHA diet, confocal scanning laser ophthalmoscopy (cSLO) and optical coherence tomography (OCT) were employed for in vivo imaging at 1 week after injections. For the cSLO imaging, both blue autofluorescence (BAF) and near-infra autofluorescence (IRAF) were performed.
(§1) Adult male wild-type C57BL/6J mice (Stock No.000664, Jackson Labs, Bar Harbor, ME, USA) were housed in standard conditions under cyclic light (12 h:12 h light-dark cycle). Mice had ad libitum access to water and food. Beginning at 2 mo of age, mice were placed on the AIN93G diet described above, supplemented with 0.25% D-DHA or DHA (control diet) for 1 week, 2 weeks, 3 weeks, or 4 weeks prior to the intravitreal injection. Mice were given an intravitreal injection of 1 µl 0.5 mM ferric ammonium citrate diluted in 0.9% NaCl (saline) (MP Biomedicals LLC, Santa Ana, CA) or
1 µl of saline as control. Intravitreal injections were performed as previously described ^54. Mice were continued on respective diet until their final evaluation. All housing and procedures were performed according to the NIH Guide for the Care and Use of Experimental Animals and approved by the University of Pennsylvania Animal Care and Use Committee.
(§2) Mice were given general anesthesia and placed on a platform. Pupils were dilated with 1% tropicamide saline solution (Akorn, Inc., Lake Forest, IL). Optical coherence tomography (OCT) imaging was performed for visualization of the retinal structure by using a Bioptigen
Envisu (R2200, Bioptigen Inc., Durham, NC, USA) coupled to a broadband LED light source (T870-HP, Superlum Diodes, Ltd, Ireland). Confocal scanning laser ophthalmoscopy (cSLO) (Spectralis HRA, Heidelberg Engineering, Franklin, MA, USA) was used for visualization of retinal AF using BluePeak™ or simply blue AF (488 nm excitation) and near-infrared AF (787 nm excitation) imaging modes.

[2] = tested on: iron-induced geographic atrophy; assay: Iron-induced geographic atrophy development, imaging 4 weeks after injection; settings: 4 weeks diet before and 4 weeks after iron injection
From the text: To evaluate whether D-DHA could protect against geographic atrophy in this model, mice were continued on respective diets for 4 weeks after iron or saline injection. […] This corresponded to photoreceptor (white arrows) and RPE degeneration (black arrows) in OCT scans (FIG. 10C). […] Taken together, […] retinal D-DHA provided long-term protection against the geographic atrophy development induced by iron.
as §1, §2
Envisu (R2200, Bioptigen Inc., Durham, NC, USA) coupled to a broadband LED light source (T870-HP, Superlum Diodes, Ltd, Ireland). […]

[3] = D-DHA content of neural retina and RPE on 0.25% D-DHA diet by mass spectrometry; settings: for % D-substitution: 4 weeks diet + IVT injection + 1 week
From the text: To determine the pharmacokinetics of ocular D-DHA uptake, incorporation and elimination from the neural retina and RPE/choroid/sclera, twelve-week-old C57BL/6J mice were fed a 0.5% D-DHA containing diet (0.5 g D-DHA/100 g food, Table 3) for 77 days followed by an additional 73-day wash-out phase with DHA. At 4 weeks, >55% of the DHA in the retina was D-DHA rising to >60% at 5 weeks (FIG. 6A). At similar time points, D-DHA in the RPE/choroid/sclera was >80%. […] Based on the accretion and elimination data, two-month-old mice were fed with diets containing either D-DHA or natural DHA control for 1 week, 2 weeks, 3 weeks, and 4 weeks before the IVT injection of iron and saline control (FIG. 6B). In order to better approximate typical DHA doses in human prescription omega-3 supplements (e.g. 1,500 mg/day DHA in Lovaza), the D-DHA and DHA experimental mouse diets were adjusted to 0.25% instead of 0.5% for most of the study. On a 0.25% D-DHA diet, retinal D-DHA levels exceeded 50% at five weeks (52.2±1.5% and 55% of total DHA by our GC- and LC- based MS methods, respectively), regardless of whether eyes were injected with iron or control saline (Table 3).
The extent to which D-DHA replaced natural DHA was determined by LC/MS by feeding an experimental diet containing 0.25% D-DHA for increasing periods of time. Microdissected samples of neural retina and RPE from mice fed the experimental diet for 4 weeks were analyzed after given IVT iron or control saline, and then continued on the experimental diet for another week. It was confirmed that 22.6% of DHA in the control diet consisted of isotopomers due to natural abundance ^13C and no D-DHA. Therefore, signals from the 327.2/283.2 transition represent 78.4% of the total DHA. The experimental diet contained no detectable natural DHA, but rather a distribution of deuterium-substituted DHA isotopologues (FIGS. 11A-C), which is a consequence of the D-DHA preparation method. After corrections were applied for natural abundance ^13C, it was determined that the D10-DHA isotopologue comprised 45.6% of the D-DHA species in the analyzed sample, with Ds-DHA, D9-DHA, D11-DHA, and D12-DHA isotopologues comprising the balance. Therefore, signals from the 337.2/293.2 transition represented 45.6% of the D-DHA. With these corrections applied, D-DHA isotopologues as a percentage of total DHA (i.e., D-DHA + DHA) was determined to be 59.3-60.8 % in isolated RPE, and 55.0 % in neural retina.
as §1
Three types of mass spectrometric analysis were performed to confirm repeatability of results. In the first, lipids were extracted from retinas by a modified Folch method (CHCl3/CH3OH, 2:1). derivatized to fatty acid methyl esters (FAME), and analyzed by high resolution capillary gas chromatography and specialized chemical ionization tandem mass spectrometry. Baseline resolved DHA and D-DHA total ion signal were integrated, and the proportions of D-DHA/total DHA were calculated. The second type of mass spectrometric analysis was performed on samples of the control and experimental diets, as well as microdissected neural retina and RPE from animals on the experimental diet. Lipids were extracted and saponified, and analyzed by ESI-LC/MS on a 4000 QTrap (Sciex) operating in enhanced negative mode over an m/z range of 320 - 345 and a scan rate of 250 /sec. […]

retinal structure = assay: Toluidine blue staining of plastic sections, retinal histology and thickness
Protocol: Electroretinography was conducted on mice fed with D-DHA or natural DHA for 4 weeks to evaluate retinal function. […] Thus, using this measure, incorporation of D-DHA had no impact on retinal function (FIG. 7A). […] Toluidine blue staining was performed on plastic sections to examine retinal histology.
Plastic sections (3 µm) were cut in the sagittal plane. The third eyelid was used for the orientation when embedding eye cups. Toluidine blue staining on plastic sections was used to evaluate retinal morphology.

[2H]C([2H])(/C=C\CC)/C=C\C([2H])([2H])/C=C\C([2H])([2H])/C=C\C([2H])([2H])/C=C\C([2H])([2H])/C=C\CCC(=O)OCC [D-DHA, 6,6,9,9,12,12,15,15,18,18-D10-(4Z,7Z,10Z,13Z,16Z, 19Z)-docosa 4,7,10,13,16, 19-hexaenoic acid ethyl ester]
iron induced retinal AF (BAF and IRAF cSLO images) ([1]; 0.25% D-DHA diet for 1, 2, 3 and 4 weeks before iron injection, 1 week after injection): dose-dependent reduction
protective effects (reduction of AF area) ([1]; at >30% retinal D-DHA substitution levels): > 50%
retinal structure in OCT scans ([1]; fed D-DHA for 4 weeks, 1 week after iron injection): complete protection
protection against iron-induced retinal damage ([1]; fed D-DHA for 4 weeks, >50% substitution in neural retina): nearly complete protection
geographic atrophy development [2]: fully protected
retinal D-DHA levels (% of total DHA) ([3]; 0.25% D-DHA diet, five weeks (4+1), neural retina, LC-based MS method): 55%
retinal D-DHA levels (% of total DHA) ([3]; 0.25% D-DHA diet, five weeks, GC-based MS method): 52.2±1.5%
retinal D-DHA levels ([3]; 0.25% D-DHA diet, five weeks, iron or saline injected eyes): exceeded 50%
% D-substitution ([3]; RPE cells, D-DHA + Fe): 59.3 ± 3.9%
% D-substitution ([3]; RPE cells, D-DHA + saline): 60.8 ± 2.1%
D-DHA isotopologues as a percentage of total DHA ([3]; isolated RPE, 0.25% diet, 4+1 weeks, LC/MS): 59.3-60.8%
substitution of DHA with D-DHA in the neural retina ([3]; mice fed with D-DHA for 4 weeks): > 50%
% D-substitution ([3]; neural retina, D-DHA + Fe): 55.0 ± 3.3%
% D-substitution ([3]; neural retina, D-DHA + saline): 55.0 ± 1.8%
retinal structure (toluidine blue histology) (retinal structure; 1 week after iron injection): complete protection
total retina thickness and outer retina thickness (retinal structure; IVT iron injected eyes, 1 week after injection): significantly protected and not different from saline injected eyes
